The source of these data is patent US20090170838A1, “Bicycloheteroaryl compounds as P2X7 modulators and uses thereof” (Renovis, Inc., priority 2005, published 2009).

For assay [1], the target named is T1, P2X7 receptor (Homo sapiens, UniProt Q99572).
T1 construct: host or cells: THP-1 cells differentiated with LPS and IFN-γ
T1 sequence (Q99572 1-595): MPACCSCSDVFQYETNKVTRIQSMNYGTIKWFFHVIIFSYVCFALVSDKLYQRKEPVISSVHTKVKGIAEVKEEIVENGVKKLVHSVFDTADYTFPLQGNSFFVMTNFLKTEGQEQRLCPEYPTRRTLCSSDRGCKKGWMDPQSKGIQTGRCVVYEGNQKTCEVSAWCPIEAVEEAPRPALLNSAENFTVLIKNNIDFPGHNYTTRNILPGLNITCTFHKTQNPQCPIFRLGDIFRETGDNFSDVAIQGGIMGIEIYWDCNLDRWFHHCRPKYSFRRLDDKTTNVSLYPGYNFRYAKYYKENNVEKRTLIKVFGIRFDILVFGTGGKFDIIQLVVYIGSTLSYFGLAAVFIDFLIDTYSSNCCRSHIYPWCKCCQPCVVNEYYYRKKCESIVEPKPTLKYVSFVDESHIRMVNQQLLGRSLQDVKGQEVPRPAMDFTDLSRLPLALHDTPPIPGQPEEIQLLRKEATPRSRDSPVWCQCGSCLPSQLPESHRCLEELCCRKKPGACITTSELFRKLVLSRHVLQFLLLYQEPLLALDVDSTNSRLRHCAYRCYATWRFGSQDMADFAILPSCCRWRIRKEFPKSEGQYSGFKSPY
The experiment in a line: IL-1β release assay (BzATP-stimulated, LPS/IFN-γ differentiated THP-1 cells, ELISA). In kind it is cell-based. To be noted: for inhibition at 0.3 µM: at 0.3 μM (plus symbols); for inhibition at 0.1 µM: at 0.1 μM (asterisk symbols). In a few lines:
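THP-1 cells were differentiated 16 h with LPS and IFN-γ (100 ng/mL each), then primed 2 h with fresh LPS. Compound pretreatment lasted 30 min, followed by 250 uM BzATP for 45 min. Supernatant IL-1β was measured by ELISA, and percent inhibition was calculated from background-adjusted levels.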
Background: ELISA stands for enzyme-linked immunosorbent assay.

The target in assay [2] is T1, P2X7 receptor. Description: Pore formation (Yo-Pro 1 uptake, BzATP-stimulated differentiated THP-1 cells). In kind it is cell-based. To be noted: for inhibition at 0.3 µM: at 0.3 μM (plus symbols); for inhibition at 0.1 µM: at 0.1 μM (asterisk symbols). As to the method:
THP-1 cells (ATCC Cat # 285-IF-100) are plated in 96 well plates at a concentration of 200,000 cells per well and allowed to differentiate in RPMI-1640 media (ATCC Cat # 30-2001) containing 10% FBS, 100 IU/mL penicillin, 100 ug/mL streptomycin, 100 ng/mL LPS and 100 ng/mL IFN-γ for 16 hours. Following differentiation, the cells are pretreated with the compound of interest at the appropriate concentration for 30 minutes in RPMI-1640 media containing 100 IU/mL penicillin, 100 ug/mL streptomycin. The pretreatment media is then replaced with assay buffer (20 mM HEPES, 10 mM D-glucose, 118 mM NMDG, 5 mM KCl, 0.4 mM CaCl2) containing 5 uM Yo-Pro 1 (Molecular Probes Cat # Y3603) and the compound of interest at the appropriate concentration and the cells are incubated for an additional 10 minutes. 2′,3′-O-(4-benzoylbenzoyl)-adenosine 5′-triphosphate (Sigma Aldrich Cat# B6396) is then added to a final concentration of 40 uM and fluoroscence readings measured at 491/509 excitation/emission every minute for 50 minutes using a Tecan Safire plate reader. During this time temperature is maintained at of 37° C. Background adjusted fluorescence levels between drug treated and non-treated cells are used to calculate the percent inhibition.

One may read the inhibition as the percentage by which the read-out fell short of the control. On to `O=C(CC12CC3CC(CC(C3)C1)C2)Nc1cccc2c1CCN(Cc1ccccc1)C2=O` [Compound 702, 2-Adamantan-1-yl-N-(2-benzyl-1-oxo-1,2,3,4-tetrahydro-isoquinolin-5-yl)-acetamide], for which the inhibition at 0.3 µM in assay [1] and in assay [2] was at least 75% in each case.
With `O=C(CC12CC3CC(CC(C3)C1)C2)Nc1cccc2c(=O)n(Cc3ccc4c(c3)OCCO4)ccc12` [Compound 707], the inhibition at 0.3 µM in assay [1] and in assay [2] was at least 75% throughout.
For the compound `O=C(CC12CC3CC(CC(C3)C1)C2)Nc1cccc2c(=O)n(CC3CCCO3)ccc12` (stereo not shown) [Compound 709], the inhibition at 0.3 µM in assay [1] and in assay [2] was at least 75% each time.
Consider `O=C(CC12CC3CC(CC(C3)C1)C2)Nc1cccc2c(=O)n(CC3CCOCC3)ccc12` [Compound 717], for which the inhibition at 0.3 µM in assay [1] and in assay [2] was at least 75% each time.
As to `O=C(CC12CC3CC(CC(C3)C1)C2)Nc1cccc2c1CCN(Cc1ccc(C(F)(F)F)cc1)C2=O` [Compound 727], the inhibition at 0.3 µM in assay [1] and in assay [2] was at least 75% each time.
As for `CC12CC3CC(C)(C1)CC(CC(=O)Nc1cccc4c(=O)n(Cc5ccccc5)ccc14)(C3)C2` [Compound 751], the inhibition at 0.1 µM in assay [1] and in assay [2] was 50 to 75% throughout.
As for `O=C(CC12CC3CC(CC(C3)C1)C2)Nc1cccc2c(=O)n(CCN3CCOCC3)ccc12` [Compound 780], the inhibition at 0.1 µM in assay [1] and in assay [2] was at least 75% throughout.
As for `O=C(CC12CC3CC(CC(C3)C1)C2)Nc1cccc2c(=O)[nH]ccc12` [Compound 804], the inhibition at 0.1 µM in assay [1] was at least 75%. Also, the inhibition at 0.3 µM in assay [2] was at least 75%.
`O=C(CC12CC3CC(CC(C3)C1)C2)Nc1cccc2c(=O)n(C(CO)Cc3c[nH]cn3)ccc12` (stereo not shown) [Compound 883] had an inhibition at 0.1 µM in assay [1] of at least 75%.
The same measure, in the same setting: with `O=C(CC12CC3CC(CC(C3)C1)C2)Nc1cccc2c(=O)n(Cc3nccs3)ccc12` [Compound 885] the figure was at least 75%.
On the same count and under the same terms, with `CC(C)C(CO)n1ccc2c(NC(=O)CC34CC5CC(CC(C5)C3)C4)cccc2c1=O` (stereo not shown) [Compound 887] the figure was at least 75%.
Consider `CC(CO)n1ccc2c(NC(=O)CC34CC5CC(CC(C5)C3)C4)cccc2c1=O` (stereo not shown) [Compound 888], for which the inhibition at 0.3 µM in assay [1] was at least 75%.
For the compound `CC12CC3CC(C)(C1)CC(CC(=O)Nc1cccc4c(=O)n(CC5CCNCC5)ccc14)(C3)C2` [Compound 890], the inhibition at 0.3 µM in assay [1] was at least 75%.
Turning to `C=Cn1ccc2c(N(C)C(=O)CC34CC5CC(CC(C5)C3)C4)cccc2c1=O` [Compound 891], the inhibition at 0.3 µM in assay [1] was 50 to 75%.
The same measure, in the same setting: in the case of `CC12CC3CC(C)(C1)CC(CC(=O)Nc1cccc4c(=O)n(CCCN5CCOCC5)ccc14)(C3)C2` [Compound 892] it was at least 75%; in that of `CC(C)Cn1ccc2c(N(C)C(=O)CC34CC5CC(CC(C5)C3)C4)cccc2c1=O` [Compound 893], 25 to 50%.
As for `CN1CCC(CN2CCc3c(NC(=O)CC45CC6CC(C)(CC(C)(C6)C4)C5)cccc3C2=O)CC1` [Compound 894], the inhibition at 0.3 µM in assay [1] was at least 75%.
Same read-out and setting: in the case of `CC12CC3CC(C)(C1)CC(CC(=O)Nc1cccc4c(=O)n(C(CO)CO)ccc14)(C3)C2` [Compound 895] it was at least 75%.
Still for that read-out and setting: with `C[C@@H](CO)n1ccc2c(NC(=O)CC34CC5CC(CC(C5)C3)C4)cccc2c1=O` [Compound 896] the figure was at least 75%; with `C[C@H](CO)n1ccc2c(NC(=O)CC34CC5CC(CC(C5)C3)C4)cccc2c1=O` [Compound 897], at least 75%.
